Experimental data published in patent publication US5573999A, “β-substituted cinnamic acid derivative” (BASF Aktiengesellschaft, priority 1991, dated 1996).

Experiments:
[1] = test system: mitochondrial respiration; test: Inhibition of mitochondrial respiration (rate of reduction of cytochrome c in isolated mitochondria), yeast; assay type: biochemical, Saccharomyces cerevisiae; details: DMSO control
Text: In order to determine the effect of the compounds according to the invention on mitochondrial respiration it is first necessary to isolate the mitochondria from the organisms being investigated. For this, in the case of the yeast Saccharomyces cerevisiae, the cells in a 30 to 40% strength suspension of the yeast in an aqueous solution of 0.6M mannitol+0.01M tris[hydroxymethyl]-aminomethane+0.002M disodium ethylenediaminetetraacetate (pH 6.8) are disrupted in a glass bead mill, and the extract is fractionated by differential centrifugation at 1000× g and 12000× g. The mitochondria are in the pellet from the 12000× g centrifugation.
(§1) Used as control is a mixture with the equivalent amount of pure DMSO. The inhibition at the concentration of agent in each case is then calculated as follows [formula] where ΔE is the change in extinction, at is the change in time, [formula] is the reaction rate for the control and [formula] is the reaction rate for the sample x.
(§2) The inhibition was determined in each case at a test substance concentration of 1.8/10^-5mol/l .

[2] = test system: mitochondrial respiration; test: Inhibition of mitochondrial respiration (rate of reduction of cytochrome c in isolated mitochondria), house fly; assay type: biochemical, Musca domestica; details: DMSO control
Text: It is also possible similarly to isolate mitochondria from other organisms, e.g. from the phytopathogenic fungus Drechslera sorokiniana (synonym: Helminthosporium sativum), from the dermatophyte Trichophyton mentagrophytes, which is a human pathogen, and, for example, from the house fly (Musca domestica) as insect or from the spider mite Tetranychus urticae.
as §1, §2

| SMILES | % inhibition of respiration at 1.8 × 10^-5 mol/l test substance, Saccharomyces cerevisiae [1] [%] | % inhibition of respiration at 1.8 × 10^-5 mol/l test substance, Musca domestica [2] [%] |
| --- | --- | --- |
| CCCCOC(=O)/C=C(/OC)c1ccccc1COc1ccc(C(C)=NOC)cc1C [Compound 1a.77] | 63 |  |
| COC(=O)/C=C(/C)c1ccccc1COc1ccccc1C [Compound 1a.108, methyl (Z)-β-methyl-2-(2-methylphenoxymethyl)cinnamate] | 98 |  |
| COC(=O)/C=C(/OC)c1ccccc1/C=C/c1ccc(OCc2ccccc2)cc1 [Compound 1a.264, methyl 2-[2-(4-benzyloxyphenyl)-(E)-ethenyl]-(E)-β-methoxycinnamate] | 98 |  |
| CCCOC(=O)/C=C(/OC)c1ccccc1COc1ccc(C(C)=NOC)cc1C [Compound 1a.75] | 70 |  |
| COC(=O)/C=C(/OC)c1ccccc1/C=C/c1ccc(C)cc1 [Compound 1a.250] | 99 |  |
| COC(=O)/C=C(\C)c1ccccc1COc1ccccc1C [Compound 1a.109, methyl (E)-β-methyl-2-(2-methylphenoxymethyl)cinnamate] | 31 |  |
| CO/N=C(\C)c1ccc(OCc2ccccc2/C(=C\C(=O)ON=C(C)C)OC)c(C)c1 [Compound 1a.82] | 94 |  |
| COC(=O)/C=C(/OC)c1ccccc1/C=C/C1CCOC(c2ccccc2)C1 (centres unmarked) [Compound 1a.331] | 79 |  |
| COC(=O)/C=C(/OC)c1ccccc1CON=C(c1ccccc1)c1ccc(Cl)cc1 [Compound 1a.358] | 99 |  |
| COC(=O)/C=C(/OC)c1ccccc1/C=C\c1cccc(Oc2ccccc2)c1 [Compound 1a.272] | 51 | 78 |
| COC(=O)/C=C(/OC)c1ccccc1/C=C\c1coc(-c2ccc(Cl)cc2)n1 [Compound 1a.303] | 98 | 86 |
| CCNC(=O)/C=C(/OC)c1ccccc1COc1ccc(C(C)=NOC)cc1C [Compound 1a.91] | 99 |  |
| COC(=O)/C=C(/OC)c1ccccc1/C=C/c1cccc(Oc2ccccc2)c1 [Compound 1a.271] | 92 | 94 |
| COC(=O)/C=C(/OC)c1ccccc1/C=C\c1cnn(-c2ccc(OC)cc2)c1 [Compound 1a.319] | 11 |  |
| COC(=O)/C=C(/OC)c1ccccc1/C=C\c1ccc(C)cc1 [Compound 1a.251] | 54 |  |
| COC(=O)/C=C(/OC)c1ccccc1C [Compound 1.1, methyl (E)-β-methoxy-2-methylcinnamate] | 23 |  |
| CO/N=C(\C)c1ccc(OCc2ccccc2/C(C)=C/C(=O)OC)c(C)c1 [Compound 1a.113, methyl (E)-β-methyl-2-[2-methyl-4-(1-(E)-methoximinoethyl)phenoxy]methylcinnamate] | 80 |  |
| COC(=O)/C=C(/OC)c1ccccc1/C=C/c1cccc([N+](=O)[O-])c1 [Compound 1a.240] | 94 | 84 |
| CNC(=O)/C=C(/OC)c1ccccc1COc1ccc(C(C)=NOC)cc1C [Compound 1a.89] | 99 |  |
| CON=C(C)c1ccc(OCc2ccccc2/C(=C\C(=O)SC)OC)c(C)c1 [Compound 1a.86] | 97 |  |
| COC(=O)/C=C(\C)c1ccccc1CBr [Compound 1.167, methyl (E)-β-methyl-2-bromomethylcinnamate] | 99 |  |
| COC(=O)/C=C(/OC)c1ccccc1/C=C/C1CCCOC1 (centres unmarked) [Compound 1a.329] | 9 |  |
| COC(=O)/C=C(/OC)c1ccccc1/C=C/c1ccccc1 [Compound 1a.233] | 88 | 89 |
| COC(=O)/C=C(/OC)c1ccccc1/C=C\c1cnn(-c2cccc(Cl)c2)c1 [Compound 1a.317] | 29 |  |

| SMILES | % inhibition of respiration at 1.8 × 10^-5 mol/l test substance, Saccharomyces cerevisiae [1] [%] | % inhibition of respiration at 1.8 × 10^-5 mol/l test substance, Musca domestica [2] [%] |
| --- | --- | --- |
| COC(=O)/C=C(/OC)c1ccccc1/C=C\c1ccn(-c2ccc(Cl)cc2)c1 [Compound 1a.305] | 30 | 39 |
| COC(=O)/C=C(/OC)c1ccccc1/C=C\c1ccccc1C(F)(F)F [Compound 1a.244] | 65 | 50 |
| CON=C(C)c1ccc(OCc2ccccc2/C(=C\C(=O)N(C)C)OC)c(C)c1 [Compound 1a.98] | 100 |  |
| C=CCOC(=O)/C=C(/OC)c1ccccc1COc1ccc(C(C)=NOC)cc1C [Compound 1a.83] | 78 |  |
| CO/N=C(\C)c1ccc(OCc2ccccc2/C(C)=C\C(=O)OC)c(C)c1 [Compound 1a.112, methyl (Z)-β-methyl-2-[2-methyl-4-(1-(E)-methoximinoethyl)phenoxy]methylcinnamate] | 99 |  |
| CCCCOc1ccc(OCc2ccccc2/C(=C\C(=O)OC)OC)cc1 [Compound 1a.37] | 98 |  |
| COC(=O)/C=C(/OC)c1ccccc1CSc1nc(-c2ccccc2)cs1 [Compound 1a.162] | 76 |  |
| CO/N=C(\C)c1ccc(OCc2ccccc2/C(=C\C(N)=O)OC)c(C)c1 [Compound 1a.88, (E)-β-methoxy-2-[2-methyl-4-(1-methoximinoethyl)phenoxymethyl]cinnamide] | 99 |  |
| COC(=O)/C=C(/OC)c1ccccc1/C=C\c1csc(-c2ccccc2)n1 [Compound 1a.307] | 58 | 71 |
| COC(=O)/C=C(/OC)c1ccccc1/C=C\c1cccc([N+](=O)[O-])c1 [Compound 1a.241] | 20 | 9 |
| COC(=O)/C=C(/OC)c1ccccc1/C=C\c1cccs1 [Compound 1a.295] | 94 | 76 |
| COC(=O)/C=C(/OC)c1ccccc1OCc1csc(-c2ccc(F)cc2)n1 [Compound 1.71, methyl (E)-β-methoxy-2-[2-(4-fluorophenyl)-4-thiazolylmethyloxy]cinnamate] | 30 | 18 |
| COC(=O)/C=C(/OC)c1ccccc1/C=C/c1cnn(-c2ccc(Cl)cc2)c1 [Compound 1a.320] | 98 |  |
| COC(=O)/C=C(/OC)c1ccccc1Oc1cccc(C)c1 [Compound 1.90, methyl (E)-β-methoxy-2-(3-methylphenoxy)cinnamate] | 85 |  |
| COC(=O)/C=C(/OC)c1ccccc1/C=C/c1cnn(-c2cccc(Cl)c2)c1 [Compound 1a.316] | 98 |  |
| CCOC(=O)/C=C(/OC)c1ccccc1COc1ccc(/C(C)=N/OC)cc1C [Compound 1a.74, ethyl (E)-β-methoxy-2-[2-methyl-4-(1-methoximinoethyl)phenoxymethyl]cinnamate] | 99 |  |
| COC(=O)/C=C(/OC)c1ccccc1/C=C/C1CCOC(C2CCCOC2)C1 (centres unmarked) [Compound 1a.333] | 20 |  |
| CCCCN(C)C(=O)/C=C(/OC)c1ccccc1COc1ccc(C(C)=NOC)cc1C [Compound 1a.101] | 69 |  |
| C#CCOC(=O)/C=C(/OC)c1ccccc1COc1ccc(C(C)=NOC)cc1C [Compound 1a.84] | 98 |  |
| COC(=O)/C=C(/OC)c1ccccc1/C=C/c1cc(CC(C)C)no1 [Compound 1a.324] | 99 |  |
| COC(=O)/C=C(/OC)c1ccccc1/C=C/c1nnc(-c2ccccc2)s1 [Compound 1a.308] | 99 |  |
| COC(=O)/C=C(\OC)c1ccccc1Oc1cccc(C)c1 [Compound 1.91, methyl (Z)-β-methoxy-2-(3-methylphenoxy)cinnamate] | 22 |  |
| COC(=O)/C=C(/OC)c1ccccc1/C=C/c1noc(-c2ccc(Cl)cc2)c1C [Compound 1a.322] | 99 |  |
| COC(=O)/C=C(/OC)c1ccccc1/C=C/c1ccccc1C [Compound 1a.247] | 99 |  |
